In patent US9487489B2, “Halogen-substituted pyrazole derivatives as pest-control agents” (BAYER CROPSCIENCE AKTIENGESELLSCHAFT, priority 2013, dated 2016):

Legend:
[1] = system: engorged adult female cattle ticks (Boophilus microplus); test: Boophilus microplus injection test (BOOPMI Inj); assay type: in vivo; conditions: application rate 20 μg/animal; injection into abdomen; assessed after 7 days
Procedure: C. Boophilus microplus-injection Test (BOOPMI Inj)
(§1) Solvent: dimethyl sulphoxide
To produce a suitable preparation of active compound, 10 mg of active compound are mixed with 0.5 ml of solvent, and the concentrate is diluted with solvent to the desired concentration.
1 μl of the active compound solution is injected into the abdomen of 5 engorged adult female cattle ticks (Boophilus microplus). The animals are transferred into dishes and kept in a climate-controlled room.
The activity is assessed after 7 days by laying of fertile eggs. Eggs whose fertility is not visible from the outside are stored in a climate-controlled cabinet until the larvae hatch after about 42 days. An efficacy of 100% means that none of the ticks has laid any fertile eggs; 0% means that all eggs are fertile.

[2] = system: adult cat fleas (Ctenocephalides felis); test: Ctenocephalides felis oral test (CTECFE); assay type: in vivo; conditions: application rate 100 ppm in citrated cattle blood; after 2 days
Procedure: D. Ctenocephalides felis-oral Test (CTECFE)
as §1
To produce a suitable preparation of active compound, 10 mg of active compound are mixed with 0.5 ml of dimethyl sulphoxide. Dilution with citrated cattle blood gives the desired concentration.
About 20 unfed adult cat fleas (Ctenocephalides felis) are placed into a chamber which is closed at the top and bottom with gauze. A metal cylinder whose bottom end is closed with a parafilm is placed onto the chamber. The cylinder contains the blood/active ingredient preparation, which can be imbibed by the fleas through the parafilm membrane.
After 2 days, the kill in % is determined 100% means that all of the fleas have been killed; 0% means that none of the fleas have been killed.

[3] = system: L1 larvae of the Australian sheep blowfly (Lucilia cuprina); test: Lucilia cuprina test (LUCICU); assay type: in vivo; conditions: application rate 100 ppm; after 2 days
Procedure: E. Lucilia cuprina Test (LUCICU)
as §1
To produce a suitable preparation of active compound, 10 mg of active compound are mixed with 0.5 ml of dimethyl sulphoxide, and the concentrate is diluted with water to the desired concentration.
About 20 L1 larvae of the Australian sheep blowfly (Lucilia cuprina) are transferred into a test vessel containing minced horsemeat and the active compound preparation of the desired concentration.
After 2 days, the kill in % is determined 100% means that all of the larvae have been killed; 0% means that none of the larvae have been killed.

[4] = system: larvae of the mustard beetle (Phaedon cochleariae); test: Phaedon cochleariae spray test (PHAECO); assay type: in vivo; conditions: Chinese cabbage leaf discs, after 7 days
How it was run: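 Compound dissolved in acetone/dimethylformamide with alkylaryl polyglycol ether emulsifier, made up in water containing 1000 ppm emulsifier, then diluted to test concentrations and sprayed against mustard beetle larvae. Efficacy (% larvae killed) scored after 7 days.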

[5] = system: greenhouse red spider mite (Tetranychus urticae); test: Tetranychus urticae spray test, OP-resistant (TETRUR); assay type: in vivo; conditions: bean leaf discs, after 6 days
Procedure: J. Tetranychus urticae-spray Test, OP-Resistant (TETRUR)
(§2) Solvent: 78.0 parts by weight of acetone
(§3) • 1.5 parts by weight of dimethylformamide Emulsifier: alkylaryl polyglycol ether
(§4) To produce a suitable preparation of active compound, 1 part by weight of active compound is dissolved using the stated parts by weight of solvent and made up with water comprising an emulsifier concentration of 1000 ppm until the desired concentration is reached. To produce further test concentrations, the preparation is diluted with emulsifier-containing water.
Discs of bean leaves (Phaseolus vulgaris) which are infested by all stages of the greenhouse red spider mite (Tetranychus urticae) are sprayed with an active compound preparation of the desired concentration.
After 6 days, the efficacy in % is determined. 100% means that all of the spider mites have been killed; 0% means that none of the spider mites have been killed.

[6] = logP determination by HPLC on a reversed-phase column (C18), EEC Directive 79/831 Annex V.A8; assay type: physicochemical
How it was run: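 Retention on a C18 reversed-phase column (Zorbax Eclipse Plus, 1.8 micron) was used, eluting with acetonitrile/water, each containing formic acid. The gradient ran from 10% to 95% acetonitrile over 4.25 min, then held 1.25 min, at 55° C and 2.0 ml/min, with MS detection.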

[7] = system: caterpillars of the armyworm (Spodoptera frugiperda); test: Spodoptera frugiperda spray test (SPODFR); assay type: in vivo; conditions: maize leaf discs, after 7 days
Procedure: I. Spodoptera frugiperda-spray Test (SPODFR)
as §2, §3, §4
Leaf discs of maize (Zea mays) are sprayed with an active compound preparation of the desired concentration and, after drying, populated with caterpillars of the armyworm (Spodoptera frugiperda).
After 7 days, the efficacy in % is determined. 100% means that all of the caterpillars have been killed; 0% means that none of the caterpillars have been killed.

[8] = system: adult cat fleas (Ctenocephalides felis); test: Ctenocephalides felis in vitro contact test with adult cat fleas (T1); conditions: after 48 h
How it was run: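 Test compound was dissolved in acetone p.a. (9 mg per 1 ml) and diluted as needed. 250 μl was spread evenly over the inner walls and floor of a 25 ml test tube by rotating on an orbital shaker for 2 h at 30 rpm. Once the solvent evaporated, 5-10 adult Ctenocephalides felis were added. Tubes were capped with a perforated plastic lid and kept horizontal at room temperature and ambient humidity.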

[9] = HPLC on reversed-phase column (C18), acetonitrile/water with formic acid, EEC Directive 79/831 Annex V.A8

| Structure (SMILES) | efficacy (laying of fertile eggs) [1] [%] | efficacy (kill in %) [2] [%] | efficacy (kill in %) [3] [%] | efficacy in % ([4]; application rate 500 g/ha) [%] | efficacy in % ([5]; application rate 100 g/ha) [%] | logP [6, 9] | efficacy in % ([4]; application rate 100 g/ha) [%] | efficacy in % ([7]; application rate 100 g/ha) [%] | efficacy in % ([7]; application rate 500 g/ha) [%] | efficacy in % ([5]; application rate 500 g/ha) [%] | logP ([6]; HPLC, reversed-phase C18, acetonitrile (0.1% formic acid)/water (0.09% formic acid) gradient) | efficacy (dead or moribund fleas) ([8]; application rate 1 μg/cm^2) [%] | efficacy (dead or moribund fleas) ([8]; application rate 5 μg/cm^2) [%] |
| --- | --- | --- | --- | --- | --- | --- | --- | --- | --- | --- | --- | --- | --- |
| Cc1cc(C(=O)NC2(C#N)CC2)cc(-c2cnn(-c3c(C(F)(F)F)c(C(F)(F)C(F)(F)F)nn3C)c2)c1 [Ic-56] | 100 | 100 | 100 | 100 | 90 |  |  |  |  |  |  |  |  |
| Cc1c(-c2ccc(Cl)c(C(=O)NC3CC3)c2)cnn1-c1c(C(F)(F)F)c(C(F)(F)C(F)(F)F)nn1C [Ic-13] | 100 | 100 | 100 |  | 90 | 3.88 | 100 | 100 |  |  |  |  |  |
| Cn1nc(C(F)(F)C(F)(F)F)c(C(F)(F)F)c1-n1cc(-c2ccc(Cl)c(C(=O)NCc3cc[nH]n3)c2)cn1 [Ic-157] | 100 | 90 | 100 | 100 |  |  |  |  | 100 | 100 |  |  |  |
| Cn1nc(C(F)(F)C(F)(F)F)c(C(F)(F)F)c1-n1cc(-c2cccc(C(=O)NCc3cccs3)c2)cn1 [Ic-20] | 100 | 100 | 100 |  | 100 | 4.20 | 100 | 100 |  |  |  |  |  |
| Cn1nc(C(F)(F)C(F)(F)F)c(C(F)(F)F)c1-n1cc(-c2cccc(C(N)=O)c2)cn1 [Ic-35] | 80 | 100 | 100 |  |  | 3.1 | 100 |  |  |  |  |  |  |
| Cn1nc(C(F)(F)C(F)(F)F)c(C(F)(F)F)c1-n1ccc(-c2ccc(Cl)c(C(=O)NC3CC3)c2)n1 [Id-2] | 100 | 100 | 95 |  |  |  | 100 | 100 |  |  | 3.97 |  |  |
| CC(C)C(C)NC(=O)c1cc(-c2cnn(-c3c(C(F)(F)F)c(C(F)(F)C(F)(F)F)nn3C)c2)ccc1Cl (stereo not shown) [Ic-137] | 100 | 100 | 100 | 83 |  |  |  |  |  | 100 |  |  |  |
| Cn1nc(C(F)(F)C(F)(F)F)c(C(F)(F)F)c1-n1cc(-c2ccc(Cl)c(C(=O)NC3CC3)c2)c(C(F)(F)F)n1 [Ic-4] | 100 | 100 | 100 |  |  | 4.51 |  |  |  |  |  |  |  |
| O=C(NC1CC1)c1cc(-c2cnn(-c3c(C(F)(F)F)c(C(F)(F)C(F)(F)F)nn3-c3ccc([N+](=O)[O-])cc3)c2)ccc1Cl [Ic-8] | 100 | 100 | 100 |  |  | 4.54 |  |  |  |  |  |  |  |
| Cn1nc(C(F)(F)C(F)(F)F)c(C(F)(F)F)c1-n1cc(-c2ccc(Cl)c(C(=O)Nc3cc[nH]n3)c2)cn1 [Ic-150] | 100 | 100 | 100 | 100 |  |  |  |  | 100 | 100 |  |  |  |
| COCC(C)NC(=O)c1cc(-c2cnn(-c3c(C(F)(F)F)c(C(F)(F)C(F)(F)F)nn3C)c2)ccc1Cl (stereo not shown) [Ic-165] | 100 | 100 | 100 | 100 |  |  |  |  | 100 | 100 |  | 100 | 100 |
| Cn1nc(C(F)(F)C(F)(F)F)c(C(F)(F)F)c1-n1cc(-c2cc(OC(F)(F)F)cc(C(=O)NC3CC3)c2)cn1 [Ic-74] | 100 | 100 | 100 | 100 |  |  |  |  | 100 |  |  |  |  |
| CON=Cc1c(C(F)(F)F)nn(C)c1-n1cc(-c2ccc(Cl)c(C(=O)NC3(C#N)CC3)c2)cn1 (mixture of isomers) [Ic-99] | 100 | 100 | 80 |  | 100 | 3.09 | 100 |  |  |  |  |  |  |
| COc1cc(C(=O)NC2(C#N)CC2)cc(-c2cnn(-c3c(C(F)(F)F)c(C(F)(F)C(F)(F)F)nn3C)c2)c1 [Ic-63] | 100 | 95 | 100 | 100 | 100 |  |  |  |  |  |  |  |  |
| Cn1nc(C(F)(F)C(F)(F)F)c(C(F)(F)F)c1-n1cc(-c2cc(OC(F)(F)F)cc(C(=O)NC3(C#N)CC3)c2)cn1 [Ic-75] | 100 | 100 | 100 | 100 |  |  |  |  | 100 |  |  |  |  |
| Cn1nc(C(F)(F)F)c(C#N)c1-n1cc(-c2ccc(Cl)c(C(=O)NC3(C#N)CC3)c2)cn1 [Ic-53] | 100 | 100 | 100 |  |  | 2.92 | 100 |  |  |  |  |  |  |
| Cn1nc(C(F)(F)C(F)(F)F)c(C(F)(F)F)c1-n1cc(-c2ccc(Cl)c(C(=O)Nc3cccnc3)c2)cn1 [Ic-149] | 100 | 100 | 100 | 100 |  |  |  |  | 100 | 100 |  | 80 | 100 |
